Assay results reported in US6235786A, “Reverse hydroxamate inhibitors of matrix metalloproteinases” (Abbott Laboratories, priority 2000, dated 2001).

molecular target: T1, stromelysin (Homo sapiens, UniProt P08254); assay: Determination of Stromelysin Inhibition (cleavage of thiopeptide ester substrate, DTNB, 405 nm); assay type: biochemical; details: Table 1; recombinant truncated human stromelysin, pH 6.5, 30 minute assay at ambient temperature
T1 construct: made in house; host or cells: E. coli
T1 sequence (P08254 100-272 limits assumed): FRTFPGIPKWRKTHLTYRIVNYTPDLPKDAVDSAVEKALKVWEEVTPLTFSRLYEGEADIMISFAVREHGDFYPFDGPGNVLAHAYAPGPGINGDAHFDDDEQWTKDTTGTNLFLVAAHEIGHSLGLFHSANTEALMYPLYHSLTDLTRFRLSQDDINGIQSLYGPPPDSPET
Procedure: The efficacy of the compounds of this invention as matrix metalloproteinase inhibitors was determined by measuring the inhibition of stromelysin. The inhibition of stromelysin by the compounds of this invention was determined as follows: Recombinant truncated stromelysin (human sequence) produced in E. coli was prepared by expression and purification of the protein as described by Ye et al. (Biochemistry, 1992, 31, 11231-11235, which is incorporated herein by reference). The enzyme was assayed by its cleavage of the thiopeptide ester substrate Ac-Pro-Leu-Gly-(2-mercapto-4-methyl-pentanoyl)-Leu-Gly-OEt as described by Weingarten and Feder (Anal. Biochem., 1985, 147, 437-440 (1985), which is incorporated herein by reference) as a substrate of vertebrate collagenase. The reported conditions were modified to allow assays to be carried out in a microtiter plate. Upon hydrolysis of the thioester bond, the released thiol group reacted rapidly with 5,5'-dithio-bis(2-nitrobenzoic acid) (DTNB) to produce a yellow color which was measured by a microtiter plate reader set at 405 nm. The rates of cleavage of the substrate by stromelysin in the presence or absence of inhibitors were measured in a 30 minute assay at ambient temperature. Solutions of the compounds in DMSO were prepared, and these were diluted at various concentrations into the assay buffer (50 mM MES/NaOH pH 6.5 with 10 mM CaCl2 and 0.2% Pluronic F-68), which was also used for dilution of the enzyme and substrate. The potency of the compounds (IC50) was calculated from the inhibition/inhibitor concentration data.

Compound	IC50 [nM]
CC(CCS(=O)(=O)c1ccc(Oc2ccccc2)cc1)N(O)C=O (racemic) [Example 120, (±)-N-hydroxy-N-(1-methyl-3-((4-phenoxyphenyl)sulfonyl)propyl)formamide]	4.3
CC(CCS(=O)(=O)c1ccc(Oc2ccc(OC(F)(F)F)cc2)cc1)N(O)C=O (racemic) [Example 121, (±)-N-hydroxy-N-(1-methyl-3-((4-(4-(trifluoromethoxy)phenoxy)phenyl)-sulfonyl)propyl)formamide]	130
CC1(C)NC(=O)N(C[C@@H](CCS(=O)(=O)c2ccc(Oc3ccccc3)cc2)N(O)C=O)C1=O [Example 123, (R)-N-(1-((4,4-dimethyl-2,5-dioxo-1-imidazolidinyl)methyl)-3-((4-phenoxyphenyl)sulfonyl)propyl)-N-hydroxyformamide]	270

molecular target: T2, gelatinase-A (MMP-2) (Homo sapiens, UniProt P08253); assay: Inhibition of Gelatinase A (MMP-2), cleavage of a fluorescent substrate; assay type: biochemical; details: Table 2; recombinant active gelatinase-A (MMP-2), pH 7.4, 40 min assay at ambient temperature
T2 construct: Recombinant active gelatinase-A (MMP-2) is purchased from Oncogene Research; purchased Oncogene Research
T2 sequence (P08253 110-660): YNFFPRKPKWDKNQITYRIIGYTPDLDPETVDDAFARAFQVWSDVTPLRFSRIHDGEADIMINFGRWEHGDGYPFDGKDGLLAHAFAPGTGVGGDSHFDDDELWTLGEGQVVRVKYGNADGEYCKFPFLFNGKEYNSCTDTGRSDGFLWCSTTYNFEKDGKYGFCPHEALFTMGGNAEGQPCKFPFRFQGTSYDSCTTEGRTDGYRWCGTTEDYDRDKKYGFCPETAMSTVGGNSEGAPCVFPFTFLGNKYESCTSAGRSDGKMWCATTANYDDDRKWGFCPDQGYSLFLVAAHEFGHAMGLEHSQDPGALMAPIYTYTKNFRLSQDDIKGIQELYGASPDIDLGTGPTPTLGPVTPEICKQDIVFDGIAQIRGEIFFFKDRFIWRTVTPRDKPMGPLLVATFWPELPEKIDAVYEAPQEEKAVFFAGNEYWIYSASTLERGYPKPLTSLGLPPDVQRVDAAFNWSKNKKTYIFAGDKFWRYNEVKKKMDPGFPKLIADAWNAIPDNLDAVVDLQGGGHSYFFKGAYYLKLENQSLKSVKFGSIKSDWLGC
Procedure: The efficacy of the compounds of this invention as matrix metalloproteinase inhibitors was also determined by measuring inhibition as outlined below for Gelatinase A, a member of this family of enzymes. Recombinant active gelatinase-A (MMP-2) is purchased from Oncogene Research. The enzyme is assayed by its cleavage of a fluorescent […] 150 uL volume in a microfluor plate as described in Science 1990, 247, 954-958. Upon cleavage of the substrate, the fluorescence of the EDANS group is increased 30-fold, and this increase is monitored using a f-max (Molecular Devices) fluorescent plate reader (ex: 335 nm; em: 485 nm). The rates of cleavage of the substrate by gelatinase-A in the presence or absence of inhibitors are measured in a 40 min assay at ambient temperature. Stock solutions of the compounds in DMSO are prepared, and these solutions are diluted into the assay buffer (50 mM Tris HCl, pH 7.4, with 150 mM NaCl and 10 mM CaCl2), which is also used for dilution of the enzyme and substrate.

Compound	IC50 [nM]
CN1C(=O)N(C[C@@H](CCS(=O)(=O)c2ccc(Oc3ccc(F)cc3)cc2)N(O)C=O)C(=O)C1(C)C [Example 132, (1R)-3-((4-(4-fluorophenoxy)phenyl)sulfonyl)-1-((3,4,4-trimethyl-2,5-dioxo-1-imidazolidinyl)methyl)propyl(hydroxy)formamide]	15
O=CN(O)C1CCCCC1CS(=O)(=O)c1ccc(Oc2ccc(F)cc2)cc1 (racemic) [Example 134, (±)-2-(((4-(4-fluorophenoxy)phenyl)sulfonyl)methyl)cyclohexyl(hydroxy)formamide]	120
CC1(C)NC(=O)N(C[C@@H](CCS(=O)(=O)c2ccc(Oc3ccc(Cl)cc3)cc2)N(O)C=O)C1=O [Example 130]	12
CC(C)(CN(O)C=O)CS(=O)(=O)c1ccc(Oc2ccccc2)cc1 [Example 129, 2,2-dimethyl-3-((4-phenoxyphenyl)sulfonyl)propyl(hydroxy)formamide]	4.3
O=CN(O)CC1(CS(=O)(=O)c2ccc(Oc3ccc(OC(F)(F)F)cc3)cc2)COCOC1 [Example 135, Hydroxy((5-(((4-(4-(trifluoromethoxy)phenoxy)phenyl)sulfonyl)methyl)-1,3-dioxan-5-yl)methyl)formamide]	0.6
CC(C)(CN(O)C=O)CS(=O)(=O)c1ccc(Oc2ccc(OC(F)(F)F)cc2)cc1 [Example 131, 2,2-dimethyl-3-((4-(4-(trifluoromethoxy)phenoxy)phenyl)sulfonyl)propyl(hydroxy)formamide]	4.9
